From the supplement of paper PMC4932681

Tests used:
ZR-75-1 Tam2 [1] = assay: relative IC50 (midpoint of fitted logistic curve, plateau may be below 50% inhibition; CellTiter-Glo viability); higher = less potent; conditions: 4-OH-tamoxifen in medium 1 µM; 72 h
In short: (§1)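 Breast cancer cell lines and their resistant derivatives were seeded into 384-well plates containing library drugs at five concentrations across a 10 000-fold range, with resistant lines kept in medium with 1 μM of the selecting drug. After 72 h at 37 °C, CellTiter-Glo viability was read on a PHERAstar and normalised to vehicle-only and positive controls. Logistic dose–response fits in the Breeze pipeline gave drug sensitivity score, relative IC50 (curve midpoint) and top-dose inhibition.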

MCF-7 [2] = assay: as above; conditions: 72 h
In short: as §1

T-47D [3] = assay: as above; conditions: 72 h
In short: as §1

BT-474 Tam1 [4] = assay: as above; conditions: 4-OH-tamoxifen in medium 1 µM; 72 h
In short: as §1

MCF-7 Tam1 [5] = assay: as above; conditions: 4-OH-tamoxifen in medium 1 µM; 72 h
In short: as §1

BT-474 Tam2 [6] = assay: as above; conditions: 4-OH-tamoxifen in medium 1 µM; 72 h
In short: as §1

ZR-75-1 [7] = assay: as above; conditions: 72 h
In short: as §1

T-47D Tam1 [8] = assay: as above; conditions: 4-OH-tamoxifen in medium 1 µM; 72 h
In short: as §1

BT-474 [9] = assay: as above; conditions: 72 h
In short: as §1

T-47D Tam2 [10] = assay: as above; conditions: 4-OH-tamoxifen in medium 1 µM; 72 h
In short: as §1

ZR-75-1 Tam1 [11] = assay: as above; conditions: 4-OH-tamoxifen in medium 1 µM; 72 h
In short: as §1

ZR-75-1 Tam2 [12] = assay: drug sensitivity score (DSS) (DSS (dimensionless)); higher = more sensitive; extreme values may be limits of the assay; conditions: 4-OH-tamoxifen in medium 1 µM; 72 h
In short: as §1

MCF-7 [13] = assay: as above; conditions: 72 h
In short: as §1

T-47D [14] = assay: as above; conditions: 72 h
In short: as §1

BT-474 Tam1 [15] = assay: as above; conditions: 4-OH-tamoxifen in medium 1 µM; 72 h
In short: as §1

MCF-7 Tam1 [16] = assay: as above; conditions: 4-OH-tamoxifen in medium 1 µM; 72 h
In short: as §1

BT-474 Tam2 [17] = assay: as above; conditions: 4-OH-tamoxifen in medium 1 µM; 72 h
In short: as §1

ZR-75-1 [18] = assay: as above; conditions: 72 h
In short: as §1

T-47D Tam1 [19] = assay: as above; conditions: 4-OH-tamoxifen in medium 1 µM; 72 h
In short: as §1

BT-474 [20] = assay: as above; conditions: 72 h
In short: as §1

T-47D Tam2 [21] = assay: as above; conditions: 4-OH-tamoxifen in medium 1 µM; 72 h
In short: as §1

ZR-75-1 Tam1 [22] = assay: as above; conditions: 4-OH-tamoxifen in medium 1 µM; 72 h
In short: as §1

Structure (SMILES) | relative IC50 (ZR-75-1 Tam2 [1]) [nM] | relative IC50 (MCF-7 [2]; 4-OH-tamoxifen in medium 0 µM) [nM] | relative IC50 (T-47D [3]; 4-OH-tamoxifen in medium 1 µM) [nM] | relative IC50 (BT-474 Tam1 [4]) [nM] | relative IC50 (MCF-7 Tam1 [5]) [nM] | relative IC50 (BT-474 Tam2 [6]) [nM] | relative IC50 (ZR-75-1 [7]; 4-OH-tamoxifen in medium 0 µM) [nM] | relative IC50 (ZR-75-1 [7]; 4-OH-tamoxifen in medium 1 µM) [nM] | relative IC50 (T-47D Tam1 [8]) [nM] | relative IC50 (BT-474 [9]; 4-OH-tamoxifen in medium 0 µM) [nM] | relative IC50 (BT-474 [9]; 4-OH-tamoxifen in medium 1 µM) [nM] | relative IC50 (T-47D Tam2 [10]) [nM] | relative IC50 (ZR-75-1 Tam1 [11]) [nM] | drug sensitivity score (ZR-75-1 Tam2 [12]) | drug sensitivity score (MCF-7 [13]; 4-OH-tamoxifen in medium 0 µM) | drug sensitivity score (MCF-7 [13]; 4-OH-tamoxifen in medium 1 µM) | drug sensitivity score (T-47D [14]; 4-OH-tamoxifen in medium 0 µM) | drug sensitivity score (T-47D [14]; 4-OH-tamoxifen in medium 1 µM) | drug sensitivity score (BT-474 Tam1 [15]) | drug sensitivity score (MCF-7 Tam1 [16]) | drug sensitivity score (BT-474 Tam2 [17]) | drug sensitivity score (ZR-75-1 [18]; 4-OH-tamoxifen in medium 0 µM) | drug sensitivity score (ZR-75-1 [18]; 4-OH-tamoxifen in medium 1 µM) | drug sensitivity score (T-47D Tam1 [19]) | drug sensitivity score (BT-474 [20]; 4-OH-tamoxifen in medium 0 µM) | drug sensitivity score (BT-474 [20]; 4-OH-tamoxifen in medium 1 µM) | drug sensitivity score (T-47D Tam2 [21]) | drug sensitivity score (ZR-75-1 Tam1 [22]) | relative IC50 (MCF-7 [2]; 4-OH-tamoxifen in medium 1 µM) [nM] | relative IC50 (T-47D [3]; 4-OH-tamoxifen in medium 0 µM) [nM]
CCOc1cc2ncc(C#N)c(Nc3ccc(OCc4ccccn4)c(Cl)c3)c2cc1NC(=O)/C=C/CN(C)C [Neratinib] | > 1000 | > 1000 | > 1000 | 4.18 | > 1000 | 3.76 | > 1000 | > 1000 | 97.6 | 9.18 | 6.18 | 218 | > 1000 | 0 | 0 | 2.07 | 0.25 | 0 | 28.3 | 0 | 28.7 | 0 | 0 | 3.53 | 20.8 | 25.6 | 2.11 | 0 | – | –
CC(C)C[C@H](NC(=O)[C@H](CCc1ccccc1)NC(=O)CN1CCOCC1)C(=O)N[C@@H](Cc1ccccc1)C(=O)N[C@@H](CC(C)C)C(=O)[C@@]1(C)CO1 [Carfilzomib] | 51.9 | 19.7 | 2.82 | 4.59 | 74.6 | 15.3 | 31.7 | 24.7 | 11.4 | 25.6 | 3.67 | 33.4 | 47.1 | 11.8 | 17.9 | 21 | 23.1 | 25.8 | 27.9 | 12.4 | 20.8 | 14 | 16.4 | 22.7 | 14.6 | 28.9 | 17.1 | 12.8 | 15.8 | 8.82
Nc1nc(=O)c2c([nH]1)NCC(CNc1ccc(C(=O)N[C@@H](CCC(=O)O)C(=O)O)cc1)N2C=O (mixture of isomers) [Folinic acid] | > 990000 | > 990000 | > 990000 | > 990000 | > 990000 | > 990000 | > 990000 | > 990000 | > 990000 | > 990000 | > 990000 | > 990000 | > 990000 | 0 | 0 | 0 | 0 | 0 | 0 | 0 | 0 | 0.942 | 0 | 0 | 0 | 0 | 0 | 0 | > 990000 | > 990000
O=C(CCBr)N1CCN(C(=O)CCBr)CC1 [Pipobroman] | > 10000 | > 10000 | > 10000 | > 10000 | > 10000 | > 10000 | > 10000 | > 10000 | > 10000 | > 10000 | > 10000 | > 10000 | > 10000 | 0 | 0 | 0 | 0 | 0 | 0 | 0 | 0 | 0 | 0 | 0 | 0 | 0 | 0 | 0 | > 10000 | > 10000
